The target in test [1] is Human immunodeficiency virus type 1 protease (Human immunodeficiency virus 1, UniProt Q72874). Kind of test: Inhibitory concentration against Protease.
For test [2], the target named is Human immunodeficiency virus type 1 protease (Human immunodeficiency virus 1) (UniProt Q72874). The experiment in a line: Relative loss of potency of compound in inhibiting Protease was determined.

`CC(C)C[C@H](NC(=O)[C@@H](NC(=O)CCCCCCCCCCCCCCC(=O)N(C)[C@@H](C(N)=O)C(=O)N[C@H](Cc1ccccc1)C(=O)O)[C@H](C)O)C(=O)N[C@@H](Cc1ccccc1)C(N)=O` had an IC50 in test [1] of 4.5 µM. The molecule `CC(C)C[C@H](NC(=O)[C@@H](NC(=O)CCCCCCCCCCCCCCC(=O)N[C@@H](C(N)=O)C(=O)N[C@H](Cc1ccccc1)C(=O)O)[C@H](C)O)C(=O)N[C@@H](Cc1ccccc1)C(N)=O` yielded an IC50 in test [1] of 5.9 µM. In test [2], this molecule showed a Relative loss of potency of 1.

`CC(C)C[C@H](NC(=O)[C@@H](NC(=O)CCCCCCCCCCCCCCC(=O)N[C@@H](C(N)=O)C(=O)N(C)[C@H](Cc1ccccc1)C(=O)O)[C@H](C)O)C(=O)N[C@@H](Cc1ccccc1)C(N)=O` showed an IC50 in test [1] of 9.6 µM. This molecule displayed a Relative loss of potency in test [2] of 1.6.

For the molecule `CC(C)C[C@@H](C(=O)N[C@@H](Cc1ccccc1)C(N)=O)N(C)C(=O)[C@@H](NC(=O)CCCCCCCCCCCCCCC(=O)N[C@@H](C(N)=O)C(=O)N[C@H](Cc1ccccc1)C(=O)O)[C@H](C)O`, it took 8 µM to reach half-maximal inhibition in test [1] (IC50). Also, the Relative loss of potency in test [2] was 1.4.

Turning to `CC(C)C[C@H](NC(=O)[C@H]([C@H](C)O)N(C)C(=O)CCCCCCCCCCCCCCC(=O)N[C@@H](C(N)=O)C(=O)N[C@H](Cc1ccccc1)C(=O)O)C(=O)N[C@@H](Cc1ccccc1)C(N)=O`, the half-inhibitory concentration (IC50) in test [1] is 8.3 µM. This molecule also yielded a Relative loss of potency in test [2] of 1.4.

In turn, `CC(C)C[C@H](NC(=O)[C@@H](NC(=O)CCCCCCCCCCCCCCC(=O)N[C@@H](C(N)=O)C(=O)N[C@H](Cc1ccccc1)C(=O)O)[C@H](C)O)C(=O)N(C)[C@@H](Cc1ccccc1)C(N)=O` yielded an IC50 in test [1] of 13 µM. This molecule also returned a Relative loss of potency in test [2] of 2.2. Turning to `CC(C)C[C@H](NC(=O)[C@@H](NC(=O)CCCCCCCCCCCCCCC(=O)N[C@@H](C(N)=O)C(=O)N(C)[C@H](Cc1ccccc1)C(=O)O)[C@H](C)O)C(=O)NCCc1ccccc1`, it took 5.8 µM to reach half-maximal inhibition in test [1] (IC50).

Values taken from ChEMBL document CHEMBL1147618, “Crucial amides for dimerization inhibitors of HIV-1 protease” (Bioorg Med Chem Lett, 2004).
